# Laboratory results: paper PMC9467586, “Development of novel 9-O-substituted-13-octylberberine derivatives as potential anti-hepatocellular carcinoma agents” (Journal of Enzyme Inhibition and Medicinal Chemistry, 2022)
# Experiments:
# [1] = system: HepG2 cells; test: Cell cycle analysis by PI staining and flow cytometry; format: cell-based, human; conditions: for G2 phase cell percentage: 72 h (control 18.00%); for S phase cell percentage: 72 h (control 22.95%); for G1 phase cell percentage: 72 h (control 59.05%)
# Description: HepG2 cells were seeded into 6-well plates and incubated at 37 °C in a humidified 5% CO2 incubator for 24 h, and then treated with or without 6k at indicated concentrations for another 72 h. The collected cells were fixed by adding 70% ethanol at 4 °C for 12 h. Subsequently, the cells were resuspended in PBS containing 100 μL RNase A and 400 μL of PI for 30 min. The DNA content of the cells was measured using a FACS Calibur flow cytometer (BectoneDickinson, San Jose, CA, USA).
# [2] = system: Sk-Hep-1 cells; test: In vitro antiproliferative MTT assay, Sk-Hep-1 cells; format: cell-based, human; conditions: Homo sapiens, SK-HEP1, 72 h, mean ± SD (n = 3)
# Description: (§1) HepG2, Sk-Hep-1, Huh-7, Hep3B and L-02 cells were purchased from Nanjing Key Gen Biotech Co. Ltd. (Nanjing, China). The cytotoxicity of test compounds was determined using an MTT assay. Briefly, the cell lines were incubated at 37 °C in a humidified 5% CO2 incubator for 24 h in 96-microwell plates. After medium removal, 100 μL of culture medium with 0.1% DMSO containing test compounds at different concentrations was added to each well and incubated at 37 °C for another 72 h. The MTT (5 mg/mL in PBS) was added and incubated for another 4 h, the optical density was detected with a microplate reader at 490 nm. The IC50 values were calculated according to the dose-dependent curves. All the experiments were repeated in at least three independent experiments.
# [3] = system: HepG2 cells; test: In vitro antiproliferative MTT assay, HepG2 cells; format: cell-based, human; conditions: Homo sapiens, 72 h, mean ± SD (n = 3), read-out: IC50 (antiproliferative activity against HepG2 cells)
# Description: as §1
# [4] = system: Hep3B cells; test: In vitro antiproliferative MTT assay, Hep3B cells; format: cell-based, human; conditions: Homo sapiens, 72 h, mean ± SD (n = 3)
# Description: as §1
# [5] = system: HepG2 cells; test: Annexin V-FITC/PI apoptosis assay, flow cytometry; format: cell-based, human; conditions: 72 h (control 6.28%)
# Description: Briefly, after treatment with or without 6k at indicated concentrations for 72 h, the cells were washed twice in PBS, centrifuged and resuspended in 500 μL AnnexinV binding buffer. The cells were then harvested, washed and stained with 5 μL Annexin V-FITC and 5 μL PI in the darkness for 15 min. Apoptosis was analysed using a FACS Calibur flow cytometer (BectoneDickinson, San Jose, CA, USA).
# [6] = system: H22 liver cancer xenograft; test: In vivo anti-HCC assay, H22 liver cancer xenograft mouse model; set-up: species or system mice; conditions: intravenous; for tumour inhibitory rate (TIR, w/w): once a day for 21 days, H22 mice
# Description: Five-week-old male Institute of Cancer Research (ICR) mice were purchased from Shanghai SLAC Laboratory Animals Co. Ltd. Briefly, a total of 1 × 10^6 H22 cells were subcutaneously inoculated into the right flank of ICR mice according to protocols of tumour transplant research, to initiate tumour growth. After incubation for one day, mice were weighed and randomly divided into 5 groups of 8 animals. The groups were administered berberine (30 mg/kg) and 6k (15 or 30 mg/kg) in a vehicle of 10% DMF/2% Tween 80/88% saline, respectively. Vehicle and cyclophosphamide (20 mg/kg) were employed as negative and positive controls, respectively. Treatments were performed by intravenous injection once per day for a total of 21 consecutive days. Body weights and tumour volumes were measured every 2 days. The mice were sacrificed after the treatments, and the tumours were excised and weighed. The tumour volume and inhibition rate (w/w) were calculated as follows: tumour volume = L × W^2/2, where L is the length and W is the width; tumour inhibitory ratio (%) = (1-average tumour weight of treated group/average tumour weight of control group) × 100%. All procedures were performed following institutional approval in accordance with the NIH Guide for the Care and Use of Laboratory Animals.
# [7] = Aqueous solubility measurement by HPLC; format: physicochemical; conditions: 25 °C, pH 7.4, aqueous buffer, thermodynamic from solid
# Description: Berberine, 3c and 6k (5 mg) were dissolved in 1 ml PBS (50 mM, pH 7.4) at 25 °C. The suspension was sonicated for 30 min and then centrifuged at 15000 g for 5 min. The supernatant was filtered through a PTFE filter (0.2 μm) slowly. Then 10 μL filtered solution was injected into the HPLC system (Shimadzu DGU-20A3R) on a Shimadzu-GL WondaSil C18-WR column and quantified using the standard curves made by the corresponding known concentrations of berberine, 3c and 6k. The eluent was methanol/water (65/35, v/v) at a flow rate of 1.0 ml/min with the detection wavelength at 254 nm.
# [8] = system: human hepatoma cells including HepG2, Sk-Hep-1 and Huh-7 cells; test: Antiproliferative MTT assay, summary over human hepatoma cells; format: cell-based; conditions: read-out: IC50 values against human hepatoma cells (span over cell lines)
# Description: as §1
# [9] = system: duplex DNA (F10T); test: FRET-melting assay, F10T (duplex DNA model); format: binding; conditions: 2 μM compounds
# [10] = system: p-cdc25c, cdc2 and cyclin B1; test: Western blot of G2/M-related proteins; format: cell-based, human; conditions: HepG2, 72 h, concentration-dependent
# Description: HepG2 cells were incubated with different doses of 6k for 72 h. Cells were collected, centrifuged, and washed two times with ice-cold PBS. The pellet was then re-suspended in lysis buffer. After the cells were lysed on ice for 20 min, lysates were centrifuged at 13000 g at 4 °C for 15 min. The protein concentration in the supernatant was determined using the BCA protein assay reagents. Equal amounts of protein (20 μg) were resolved using sodium dodecyl sulfate-polyacrylamide gel electrophoresis (SDS-PAGE) (10–12% acrylamide gels) and transferred to PVDF membrane. Membranes were blocked for 1 h at room temperature. Membranes were then incubated with primary antibodies against p-cdc25c, cdc2, cyclin B1, Bax, Bcl-2, cytochrome C, caspase-3, VDAC1 and β-actin, the membrane being gently rotated overnight at 4 °C. The bound antibodies were detected using horseradish peroxidase (HRP)-conjugated second antibodies and visualised by the enhanced chemiluminescent reagent.
smiles,measurement,setting,value
"CCCCCCCCc1c2[n+](cc3c(OCCCCCCCCN4CCN(C)CC4)c(OC)ccc13)CCc1cc3c(cc1-2)OCO3.[Br-] [Compound 6k, 10-Methoxy-9-((8–(4-methylpiperazin-1-yl)octyl)oxy)-13-octyl-5,6-dihydro-[1,3]dioxolo[4,5-g]isoquinolino[3,2-a]isoquinolin-7-ium bromide]",Effect on cell cycle progression,"[1]; HepG2, 0.25-1.0 μM, 72 h",cell cycle arrest at G2/M phase
same,G2 phase cell percentage,"[1]; HepG2, 6k 0.25 μM",23.56%
same,S phase cell percentage,"[1]; HepG2, 6k 0.25 μM",16.19%
same,G1 phase cell percentage,"[1]; HepG2, 6k 0.25 μM",60.24%
same,G2 phase cell percentage,"[1]; HepG2, 6k 0.50 μM",29.49%
same,S phase cell percentage,"[1]; HepG2, 6k 0.50 μM",22.68%
same,G1 phase cell percentage,"[1]; HepG2, 6k 0.50 μM",47.82%
same,G2 phase cell percentage,"[1]; HepG2, 6k 1.0 μM",32.16%
same,S phase cell percentage,"[1]; HepG2, 6k 1.0 μM",26.95%
same,G1 phase cell percentage,"[1]; HepG2, 6k 1.0 μM",40.88%
same,total cell percentages of G1 and S phases,"[1]; HepG2, 6k 1.0 μM, 72 h (control 82.00%)",67.83%
same,IC50,[2],1.69 ± 0.07 µM
same,IC50,[3],0.76 ± 0.06 µM
same,IC50,[4],1.6 ± 0.11 µM
same,total apoptotic cells (Q2 + Q3),"[5]; HepG2, 0.25 μM",16.42%
same,total apoptotic cells (Q2 + Q3),"[5]; HepG2, 0.50 μM",34.29%
same,total apoptotic cells (Q2 + Q3),"[5]; HepG2, 1.0 μM",59.17%
same,"tumour inhibitory rate (TIR, w/w)",[6]; 15 mg/kg,50.4%
same,"tumour inhibitory rate (TIR, w/w)",[6]; 30 mg/kg,61.1%
same,mice body weights during treatment,"[6]; 15 or 30 mg/kg, 21 days",didn’t cause significant loss in mice body weights
same,melting point,,151 to 153 °C
same,solubility at 30 min,[7],1080 µg/mL
same,IC50,[8],0.62 to 1.69 µM
same,ΔTm(B) = Tm(F10T + compound) - Tm(F10T),[9],0.8 °C
same,cdc2,[10],inhibited cdc2 kinase activation
same,cdc25c phosphorylation (p-cdc25c),[10],significantly promoted cdc25c phosphorylation
same,cyclin B1,[10],reduced cyclin B1 binding
